The record followed here is ChEMBL document CHEMBL1140599, “DAT/SERT selectivity of flexible GBR 12909 analogs modeled using 3D-QSAR methods” (Bioorg Med Chem, 2007).

The species named for test [1] is Rattus norvegicus. In words: Selectivity for rat DAT over rat SERT.
Test [2] addresses Sodium-dependent dopamine transporter (Rattus norvegicus, UniProt P23977). In words: Displacement of [125I]RTI55 from DAT in rat brain synaptosomes. It counts as subcellular. On the technique in general: In a radioligand displacement assay an active substance lowers the binding of a labelled ligand.
Test [3] deals with Sodium-dependent serotonin transporter (Rattus norvegicus, UniProt P31652). The test is described as follows: Displacement of [125I]RTI55 from SERT in rat brain synaptosomes. It counts as subcellular.
Sequence of Sodium-dependent serotonin transporter (P31652 whole entry): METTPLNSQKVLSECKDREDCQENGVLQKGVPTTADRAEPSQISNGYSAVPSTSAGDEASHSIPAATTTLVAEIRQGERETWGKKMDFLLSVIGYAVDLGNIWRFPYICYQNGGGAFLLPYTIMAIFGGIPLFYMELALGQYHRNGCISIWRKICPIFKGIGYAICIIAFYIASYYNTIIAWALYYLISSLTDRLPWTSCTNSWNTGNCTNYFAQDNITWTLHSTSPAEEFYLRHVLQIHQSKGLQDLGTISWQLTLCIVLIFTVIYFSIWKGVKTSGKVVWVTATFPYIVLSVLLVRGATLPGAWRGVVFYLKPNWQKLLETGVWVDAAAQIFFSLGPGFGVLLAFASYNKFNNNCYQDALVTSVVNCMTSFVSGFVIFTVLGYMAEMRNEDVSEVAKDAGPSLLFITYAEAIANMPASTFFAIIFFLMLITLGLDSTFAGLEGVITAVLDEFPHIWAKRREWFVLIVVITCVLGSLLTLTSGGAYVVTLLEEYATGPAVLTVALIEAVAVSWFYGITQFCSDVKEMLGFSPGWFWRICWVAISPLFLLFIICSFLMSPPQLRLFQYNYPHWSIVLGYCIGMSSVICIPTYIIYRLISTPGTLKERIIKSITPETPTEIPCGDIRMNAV

Sequence of Sodium-dependent dopamine transporter (P23977 whole entry): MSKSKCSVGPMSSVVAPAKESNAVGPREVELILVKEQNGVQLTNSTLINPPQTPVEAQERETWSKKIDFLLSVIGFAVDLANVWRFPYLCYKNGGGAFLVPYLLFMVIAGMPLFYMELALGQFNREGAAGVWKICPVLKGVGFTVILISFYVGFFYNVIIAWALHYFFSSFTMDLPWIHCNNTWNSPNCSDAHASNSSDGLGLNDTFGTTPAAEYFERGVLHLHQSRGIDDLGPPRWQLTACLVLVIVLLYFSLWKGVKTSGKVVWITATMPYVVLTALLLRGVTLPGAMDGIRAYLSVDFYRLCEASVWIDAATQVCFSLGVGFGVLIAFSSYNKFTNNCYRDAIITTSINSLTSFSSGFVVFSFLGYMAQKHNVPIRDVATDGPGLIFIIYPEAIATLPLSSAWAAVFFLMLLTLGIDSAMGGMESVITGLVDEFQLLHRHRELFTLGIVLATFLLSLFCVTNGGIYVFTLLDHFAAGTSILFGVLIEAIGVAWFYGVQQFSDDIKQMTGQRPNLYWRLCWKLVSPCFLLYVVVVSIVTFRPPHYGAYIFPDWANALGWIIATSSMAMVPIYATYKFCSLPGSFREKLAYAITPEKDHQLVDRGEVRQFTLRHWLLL

For the molecule `CCCN1CCN(CCOC(c2ccc(F)cc2)c2ccc(F)cc2)CC1`, the Ratio pKi in test [1] stood at 1.35.
Same read-out and setting: then `Fc1ccc(C(OCCC2CCN(Cc3cccc4ccccc34)CC2)c2ccc(F)cc2)cc1`, with 1.36.
The same measure, in the same setting: for `O=[N+]([O-])c1ccc(CN2CCC(CCOC(c3ccc(F)cc3)c3ccc(F)cc3)CC2)cc1` the value was 2.51.
In general, Ki refers to the dissociation constant of the complex between target and ligand, obtained from inhibition or displacement. Low values mean a stronger hold on the target, high ones a looser hold on the target. As for `COc1ccc2c(c1)CC[C@@H](CN1CCN(CCOC(c3ccc(F)cc3)c3ccc(F)cc3)CC1)[C@H]2O`, the Ki in test [2] was determined as 14 nM. Also, the Ratio pKi in test [1] is -0.67.
As to `Fc1ccc(C(OCCC2CCN(C[C@@H]3Cc4ccccc4CN3)CC2)c2ccc(F)cc2)cc1`, the Ki is 48.1 nM in test [3] and 4.77 nM in test [2]. The Ratio pKi in test [1] is 1.
The matching figures for `Fc1ccc(C(OCCN2CCN(Cc3ccc4ccccc4n3)CC2)c2ccc(F)cc2)cc1`: 51 nM, 56 nM and -0.04.
Consider `Fc1ccc(C(OCCC2CCN(Cc3ccc(Cl)cc3)CC2)c2ccc(F)cc2)cc1`, for which the Ratio pKi in test [1] is 2.3.
As for `Fc1ccc(C(OCCC2CCN(Cc3cc4ccccc4[nH]3)CC2)c2ccc(F)cc2)cc1`, the Ki in test [3] worked out at 88 nM; in test [2] it was 0.73 nM. In test [1], the Ratio pKi was 2.08.
Regarding `O[C@H]1c2ccccc2CC[C@H]1CN1CCN(CCOC(c2ccc(F)cc2)c2ccc(F)cc2)CC1`, the Ratio pKi in test [1] was 1.36.
Still for that read-out and setting: for `C=CCN1CCN(CCOC(c2ccc(F)cc2)c2ccc(F)cc2)CC1` the value was 1.41.
As for `O=C1CCCCC1CN1CCN(CCOC(c2ccc(F)cc2)c2ccc(F)cc2)CC1` (racemic), the Ki in test [3] was 1690 nM; in test [2], 87 nM. The Ratio pKi in test [1] came out at 1.29.
The matching figures for `Fc1ccc(C(OCCN2CCN(Cc3cccc4ccccc34)CC2)c2ccc(F)cc2)cc1`: 243 nM, 31 nM and 0.89.
Molecule `COc1ccc2c(c1)CCC(CN1CCN(CCOC(c3ccc(F)cc3)c3ccc(F)cc3)CC1)=C2` displayed a Ki in test [2] of 53 nM. In addition, the Ratio pKi in test [1] was determined as 0.03.
With `O=C1c2ccccc2CCC1CN1CCN(CCOC(c2ccc(F)cc2)c2ccc(F)cc2)CC1` (racemic), the Ratio pKi in test [1] is 0.29.
Still for that read-out and setting: for `Fc1ccc(C(OCCC2CCN(Cc3ccc(I)cc3)CC2)c2ccc(F)cc2)cc1` the value was 1.99.
As for `Fc1ccc(C(OCCN2CCN(Cc3cc4ccccc4[nH]3)CC2)c2ccc(F)cc2)cc1`, the Ki was determined as 119 nM in test [3] and 0.7 nM in test [2]. Besides, the Ratio pKi in test [1] amounted to 2.23.
Take `CCN1CCN(CCOC(c2ccc(F)cc2)c2ccc(F)cc2)CC1`: the Ratio pKi in test [1] is 1.79.
Regarding `Fc1ccc(C(OCCC2CCN(CC#Cc3ccccc3)CC2)c2ccc(F)cc2)cc1`, the Ki was 164 nM in test [3] and 5.3 nM in test [2]. Besides, in test [1], the Ratio pKi came out at 1.49.
The matching figures for `Fc1ccc(C(OCCC2CCN(Cc3cc4ccccc4s3)CC2)c2ccc(F)cc2)cc1`: 246 nM, 1.61 nM and 2.18.
`O=C1CCCC1CN1CCN(CCOC(c2ccc(F)cc2)c2ccc(F)cc2)CC1` (racemic): the Ratio pKi in test [1] amounted to 1.06.
In the case of `Fc1ccc(C(OCCN2CCN(Cc3cc4ccccc4o3)CC2)c2ccc(F)cc2)cc1`, the Ki in test [3] came out at 286 nM; in test [2], 6.4 nM. Also, the Ratio pKi in test [1] turned out to be 1.65.
As to `COc1ccc2c(c1)CCC(CN1CCN(CCOC(c3ccc(F)cc3)c3ccc(F)cc3)CC1)C2=O` (racemic), in test [1], the Ratio pKi is -0.87.
Consider `Fc1ccc(C(OCCN2CCN(Cc3ccc4ncccc4c3)CC2)c2ccc(F)cc2)cc1`, for which the figures for the Ki in test [3] and in test [2] were 551 nM and 61.8 nM, respectively. Further, the Ratio pKi in test [1] is 0.95.
Consider `COc1cccc(CN2CCC(CCOC(c3ccc(F)cc3)c3ccc(F)cc3)CC2)c1`, for which, in test [1], the Ratio pKi came out at 1.08.
On the same count and under the same terms, for `COc1ccccc1CN1CCC(CCOC(c2ccc(F)cc2)c2ccc(F)cc2)CC1` the value was 0.6.
For `Fc1ccc(C(OCCN2CCN(CC34CC5CC(CC(C5)C3)C4)CC2)c2ccc(F)cc2)cc1`, the Ki stood at 598 nM in test [3] and 100 nM in test [2]. Moreover, the Ratio pKi in test [1] is 0.78.
The matching figures for `Fc1ccc(C(OCCC2CCN(C[C@@H]3C[C@H]3c3ccccc3)CC2)c2ccc(F)cc2)cc1`: 22 nM, 0.8 nM and 1.44.
Turning to `N#Cc1ccc(CN2CCC(CCOC(c3ccc(F)cc3)c3ccc(F)cc3)CC2)cc1`, the Ratio pKi in test [1] came out at 2.7.
In the case of `Fc1ccc(C(OCCC2CCN(Cc3cc4ccccc4o3)CC2)c2ccc(F)cc2)cc1`, the Ki in test [3] was determined as 85 nM; in test [2] it was 1.01 nM. Also, the Ratio pKi in test [1] stood at 1.93.
The matching figures for `O[C@H]1c2ccccc2CC[C@@H]1CN1CCN(CCOC(c2ccc(F)cc2)c2ccc(F)cc2)CC1`: 32 nM, 18 nM and 0.25.
In the case of `Fc1ccc(C(OCCC2CCN(Cc3ccc(Br)cc3)CC2)c2ccc(F)cc2)cc1`, the Ratio pKi in test [1] stood at 2.26.
Turning to `Fc1ccc(C(OCCN2CCN(CC3=Cc4ccccc4CC3)CC2)c2ccc(F)cc2)cc1`, the Ratio pKi in test [1] was found to be 1.61.
For `Fc1ccc(C(OCCN2CCN(Cc3cnc4ccccc4c3)CC2)c2ccc(F)cc2)cc1`, the Ki in test [3] turned out to be 485 nM; in test [2] it was 16.1 nM. Also, in test [1], the Ratio pKi stood at 1.48.
`Fc1ccc(C(OCCC2CCN(C[C@H]3C[C@@H]3c3ccccc3)CC2)c2ccc(F)cc2)cc1`: the Ki in test [3] was determined as 136 nM; in test [2], 1.3 nM. For the same molecule, the Ratio pKi in test [1] was 2.02.
Turning to `Fc1ccc(CN2CCC(CCOC(c3ccc(F)cc3)c3ccc(F)cc3)CC2)cc1`, the Ratio pKi in test [1] worked out at 2.03.
Same read-out and setting: for `Cc1ccc(CN2CCC(CCOC(c3ccc(F)cc3)c3ccc(F)cc3)CC2)cc1` the value was 1.62; for `Fc1ccc(C(OCCC2CCN(Cc3ccc(C(F)(F)F)cc3)CC2)c2ccc(F)cc2)cc1`, 2.6.
As for `Fc1ccc(C(OCCN2CCN(Cc3ccc4ccccc4c3)CC2)c2ccc(F)cc2)cc1`, the results for the Ki in test [3] and in test [2] were 312 nM and 8 nM, respectively. Also, the Ratio pKi in test [1] worked out at 1.59.
The matching figures for `Fc1ccc(C(OCCN2CCN(Cc3cc4ccccc4s3)CC2)c2ccc(F)cc2)cc1`: 495 nM, 4.1 nM and 2.08.
With `COc1ccc(CN2CCC(CCOC(c3ccc(F)cc3)c3ccc(F)cc3)CC2)cc1`, the Ratio pKi in test [1] came out at 1.53.
For the molecule `Fc1ccc(C(OCCN2CCN(CC#Cc3ccccc3)CC2)c2ccc(F)cc2)cc1`, the Ki in test [3] was 266 nM; in test [2], 20 nM. Also, the Ratio pKi in test [1] amounted to 1.12.
As for `O=C1CCCCCC1CN1CCN(CCOC(c2ccc(F)cc2)c2ccc(F)cc2)CC1` (racemic), the Ratio pKi in test [1] was 1.03.
`Fc1ccc(C(OCCN2CCN(CCCCl)CC2)c2ccc(F)cc2)cc1`: the Ki stood at 338 nM in test [3] and 42 nM in test [2]. In addition, in test [1], the Ratio pKi came to 0.91.
Regarding `Fc1ccc(C(OCCC2CCN(Cc3ccccc3)CC2)c2ccc(F)cc2)cc1`, the Ratio pKi in test [1] turned out to be 1.24.
`Fc1ccc(C(OCCC2CCN(C[C@H]3Cc4ccccc4CN3)CC2)c2ccc(F)cc2)cc1`: the results for the inhibitory constant (Ki) in test [3] and in test [2] were 15.2 nM and 9.32 nM, respectively. In test [1], the Ratio pKi came out at 0.21.
In test [2], `Fc1ccc(C(OCCC2CCN(Cc3ccc4ccccc4c3)CC2)c2ccc(F)cc2)cc1` displayed a Ki of 0.71 nM. In addition, the Ratio pKi in test [1] worked out at 2.51.
